Results from patent publication US7220553B2, “Use of Russell's viper venom-induced plasma factor Xa activity to monitor the activity of factor Xa inhibitors” (Sanofi-Aventis Deutschland GmbH, priority 1999, dated 2007).

How the values were obtained:
Format in all cases: biochemical
plasma [1] = assay: PT clotting time, RPR spiked in plasma
Description: (§1) • 2. Follow the reaction kinetically for 5 min. • C) Calculation: Measure the initial velocity, however, ignore the lag phase. In general measure the initial rate of the linear portion of the time course. Use initial rates of clinical samples at different time points and then compared to the pre-dosing control to calculate % inhibition. Various concentrations of the compound RPR spiked in plasma were assayed for PT, APTT and PVVT prolongation. […] RVV-X induced clotting time (RVVT) assay could be conveniently used for monitoring the effect of RPR on patient's endogenous plasma FXa.

endogenous plasma FXa = molecular target: T1, endogenous plasma FXa (Homo sapiens, UniProt P00742); assay: Russell's viper venom-induced clotting time (RVVT), RPR spiked in plasma
T1 construct: monitoring the effect of RPR on patient's endogenous plasma FXa; from tissue
T1 sequence (P00742 235-488 limits assumed): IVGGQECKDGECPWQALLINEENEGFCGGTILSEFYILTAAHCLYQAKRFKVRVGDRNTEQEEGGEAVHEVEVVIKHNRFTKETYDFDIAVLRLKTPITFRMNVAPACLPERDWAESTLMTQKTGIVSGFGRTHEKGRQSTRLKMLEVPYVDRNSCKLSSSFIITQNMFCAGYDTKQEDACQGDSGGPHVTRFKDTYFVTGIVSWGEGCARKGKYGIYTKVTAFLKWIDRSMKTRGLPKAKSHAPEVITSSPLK
T1 sequence (P00742 41-179 partner limits assumed): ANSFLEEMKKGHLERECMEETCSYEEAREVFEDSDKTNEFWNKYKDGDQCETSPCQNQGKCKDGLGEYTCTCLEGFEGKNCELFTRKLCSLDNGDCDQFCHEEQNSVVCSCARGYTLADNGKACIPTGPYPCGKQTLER
Description: Dose-dependent clotting time prolongation curve from the compound methyl-3-(4′-N-oxopyridylphenoyl)-3-methyl-2-(m-amidinobenzyl)-propionate (hereinafter “RPR”) or the trifluoroacetate salt of RPR: • 1. Add 0.1 ml FXa buffer, 0.1 ml serial dilution of RPR, 0.1 ml normal pooled or patients plasma to the cuvette then 0.1 ml of RVV-Ca (MLA-800 dotter add this reagent automatically). • 2. Measure clotting time. • 3. Construct the dose-dependent clotting time prolongation curve. • 4. Calculate concentration for 2×RVVT
as §1

plasma [2] = assay: APTT clotting time, RPR spiked in plasma
Description: as §1

**Q.** Which results are given for COC(=O)C(Cc1cccc(C(=N)N)c1)C(C)C(=O)c1ccc(-c2cc[n+]([O-])cc2)cc1 (stereo not drawn) [RPR, methyl-3-(4′-N-oxopyridylphenoyl)-3-methyl-2-(m-amidinobenzyl)-propionate]?
**A.** fold-change of PT (plasma [1]; RPR 50 μg/ml spiked in plasma): 1.08 fold; fold-change of PT (plasma [1]; RPR 166 μg/ml spiked in plasma): 1.16 fold; fold-change of PT (plasma [1]; RPR 322 μg/ml spiked in plasma): 1.25 fold; fold-change of RVVT (endogenous plasma FXa; RPR 50 μg/ml spiked in plasma): 1.33 fold; fold-change of RVVT (endogenous plasma FXa; RPR 166 μg/ml spiked in plasma): 2.66 fold; fold-change of RVVT (endogenous plasma FXa; RPR 322 μg/ml spiked in plasma): 4.41 fold; fold-change of APTT (plasma [2]; RPR 50 μg/ml spiked in plasma): 1.08 fold; fold-change of APTT (plasma [2]; RPR 166 μg/ml spiked in plasma): 1.41 fold; fold-change of APTT (plasma [2]; RPR 322 μg/ml spiked in plasma): 1.5 fold
